The record followed here is the Deep4Chem optical property database.

The series is described as follows: solvent given as SMILES.

Regarding `CCOC(=O)C1=C(N)n2c(=O)c3ccccc3c(=O)n2C1c1ccc(C)cc1` (stereo not given), the absorption maximum (in CS(C)=O) was found to be 365 nm.
Under “in CC#N”, `CN1/C(=C\C=C\C2=C3C=CC(c4ccccc4)=[N+]3[B-](F)(F)n3c2ccc3-c2ccccc2)Sc2ccccc21` gave an absorption maximum of 683 nm.
Regarding `CC1=C(c2cccs2)C(C)=[N+]2C1=C(c1ccc(O)cc1)c1c(C)c(-c3cccs3)c(C)n1[B-]2(F)F`, the absorption maximum (in CO) is listed as 521 nm, the absorption maximum (in Cc1ccccc1) is 530 nm and the absorption maximum (in ClCCl) is on record as 528 nm.
Take `COc1cc(-c2nc3c4cccnc4c4ncccc4c3[nH]2)c(OC)cc1/C=C/c1ccncc1`: the absorption maximum by setting is: (in C1CCOC1) 394 nm; (in CC#N) 392 nm; (in CN(C)C=O) 396 nm; (in Cc1ccccc1) 395 nm.
Consider `CCN(CC)c1ccc2c(c1)oc(=O)c1c(=O)oc3cc(Br)ccc3c12`, for which the absorption maximum (in CS(C)=O) is listed as 469 nm and the absorption maximum (in ClCCl) was found to be 466 nm.
As for `Cc1ccc(-c2ccc(/C=C/c3ccc(Cl)cc3)cn2)nc1`, the absorption maximum (in CC#N) was determined as 337 nm.
Compound `CC1=CC(C)=[N+]2C1=C(c1ccc(C(=O)OC3C[C@@H]4CC[C@]3(C)C4(C)C)cc1)c1c(C)cc(C)n1[B-]2(F)F` (stereo not given in full) yielded an absorption maximum (in Cc1ccccc1) of 506 nm.
Turning to `CCN1/C(=C\c2c(-c3ccc(N(C)C)cc3)c(=O)c2=O)C=Cc2ccccc21`, the absorption maximum by setting is: (in C1CCCCC1) 359 nm; (in Cc1ccccc1) 362 nm; (in ClCCl) 509 nm.
`Oc1ccc2ccccc2c1/C=N/CC/N=C/c1c(O)ccc2ccccc12` displayed an absorption maximum (in CC#N) of 408 nm.
Regarding `C(#Cc1ccccc1)C(C#Cc1ccccc1)=Cc1ccc(C=C(C#Cc2ccccc2)C#Cc2ccccc2)cc1`, the absorption maximum (in ClC(Cl)Cl) stood at 416 nm.
For the compound `O=S(=O)(c1ccc(-c2ccc(-c3nc4c5ccccc5c5ccccc5c4n3-c3ccccc3)cc2)cc1)c1ccc(-c2ccc(-c3nc4c5ccccc5c5ccccc5c4n3-c3ccccc3)cc2)cc1`, the absorption maximum by setting is: (in C1CCOC1) 368 nm; (in CC#N) 368 nm; (in CC(C)=O) 368 nm; (in CC(C)OC(C)C) 368 nm; (in CCCCCC) 368 nm; (in CCCCOCCCC) 368 nm. Moreover, the absorption maximum reads like this: (in CCN(CC)CC) 368 nm; (in CCOC(C)=O) 368 nm; (in CCOCC) 368 nm; (in CN(C)C=O) 368 nm; (in ClC(Cl)Cl) 368 nm; (in ClCCl) 368 nm.
With `FC(F)(F)C(F)(F)C(F)(F)C(F)(F)C(F)(F)C(F)(F)C(F)(F)C(F)(F)CCOc1nnc(Cl)nn1`, the absorption maximum reads like this: (in ClCCl) 519 nm; (in OCC(F)(F)F) 509 nm.
Turning to `CCCCCCCCC1(CCCCCCCC)c2cc(-c3ccc(C(F)(F)F)cc3)ccc2-c2ccc(N(c3ccc(-n4c5ccccc5c5ccccc54)cc3)c3ccc4c(c3)C(CCCCCCCC)(CCCCCCCC)c3cc(-c5ccc(C(F)(F)F)cc5)ccc3-4)cc21`, the absorption maximum is listed as 375 nm (in C1CCOC1); 374 nm (in C1COCCO1); 370 nm (in CC#N); 371 nm (in CC(C)=O); 380 nm (in CCCCCC); 379 nm (in CCCCOCCCC). The absorption maximum reads like this: (in CCN(CC)CC) 376 nm; (in CCOC(C)=O) 372 nm; (in CCOCC) 374 nm; (in CN(C)C=O) 373 nm; (in CS(C)=O) 371 nm; (in Cc1ccccc1) 379 nm. The absorption maximum by setting is: (in ClC(Cl)Cl) 382 nm; (in ClCCl) 378 nm; (in c1ccccc1) 378 nm.
As to `CC1=[N+]2C(=C(c3ccc(C(=C(c4ccccc4)c4ccccc4)c4ccccc4)cc3)c3ccc(/C=C/c4ccc(C(=C(c5ccccc5)c5ccccc5)c5ccccc5)cc4)n3[B-]2(F)F)C=C1`, the absorption maximum (in C1CCOC1) was found to be 587 nm.
`N#Cc1ccc(C#Cc2ncc(-c3ccccc3)o2)cc1` gave an absorption maximum (in ClCCl) of 345 nm.
`CCn1c2ccc(S(=O)(=O)O)cc2c(=O)c2cc3c(cc21)c(=O)c1cc(S(=O)(=O)O)ccc1n3CCCCCC(=O)O` yielded an absorption maximum (in O) of 536 nm.
With `COC(=O)c1ccc(C2=C3C(C)=CC(C)=[N+]3[B-](F)(F)n3c(/C=C/c4c[nH]cn4)cc(C)c32)cc1`, the absorption maximum (in ClC(Cl)Cl) worked out at 572 nm.
Take `COc1cc(OC)cc(C2=CC(c3ccccc3)=C(c3ccccc3)C2)c1`: under “in ClCCl”, the absorption maximum is 355 nm.
`COc1cc2c3c(c4cc(OC)c(OC)c(OC)c4c2c(OC)c1OC)=[N+]1C(=C(c2c(C)cc(C)cc2C)c2cc4c5cc(OC)c(OC)c(OC)c5c5c(OC)c(OC)c(OC)cc5c4n2[B-]1(F)F)C=3`: the absorption maximum is on record as 733 nm (in C1CCCCC1); 730 nm (in C1CCOC1); 718 nm (in CC#N); 740 nm (in Cc1ccccc1); 727 nm (in ClCCl).
Regarding `CN1C(=CC2=C([O-])C(=CC3=[N+](C)c4ccc(Cl)cc4C3(C)C)C2=O)C(C)(C)c2cc(Cl)ccc21`, the absorption maximum (in CO) amounted to 635 nm, the absorption maximum (in ClC(Cl)Cl) was found to be 641 nm and the absorption maximum (in ClCCl) amounted to 641 nm.
In the case of `C(=C\c1cnc2ccccc2n1)/c1ccc(N2CCCCC2)cc1`, the absorption maximum is recorded as 410 nm (in C1CCOC1); 410 nm (in CC#N); 402 nm (in CCCCCCC); 423 nm (in CS(C)=O); 414 nm (in ClCCl).
Take `CCOC(=O)COc1ccc(/C=C/C2=C3c4ccccc4C(c4[nH]c(C)cc4C)=[N+]3[B-](F)(F)n3c(/C=C/c4ccc(OCC(=O)OCC)cc4)cc(C)c32)cc1`: the absorption maximum was 676 nm (in C1CCOC1); 667 nm (in CC#N); 674 nm (in CCCCCC); 668 nm (in CO); 683 nm (in Cc1ccccc1); 676 nm (in ClCCl).
In turn, `Cc1ccccc1N1c2sc3ccccc3c2Sc2sc3ccccc3c21` had an absorption maximum (in ClCCl) of 325 nm.
On to `CCC(C)(C)c1ccc2c(c1)C(CC)(CC)c1cc(-c3ccc(-c4ccc5c(c4)C(CC)(CC)c4cc(C(C)(C)CC)ccc4-5)cc3)ccc1-2`, for which, where the note is “in C1CCCCC1”, the absorption maximum is reported as 332 nm.
The compound `CCCCCCCCN(CCCCCCCC)c1ccc(/C=C/c2ccc(C#Cc3ccc(-c4ccc(C#Cc5ccc(/C=C/c6ccc(N(CCCCCCCC)CCCCCCCC)cc6)cc5)cc4)cc3)cc2)cc1` displayed an absorption maximum (in Cc1ccccc1) of 406 nm.
As for `CN(C)c1cc2sc3cc(N(C)C)c(F)cc3c(=O)c2cc1F`, the absorption maximum (in CCO) came to 382 nm.
In turn, `N#Cc1ccc(/C=C/C(F)(F)F)c(N)c1` gave an absorption maximum (in C1CCOC1) of 367 nm.
For the setting “in ClCCl”, `CCCCN1C(=O)c2cccc3c(C#CC#Cc4ccc5c6c(cccc46)C(=O)N(CCCC)C5=O)ccc(c23)C1=O` came in with an absorption maximum of 372 nm.
For the compound `F[B-]1(F)OC(c2ccc(C(F)(F)F)cc2)=Cc2c3ccccc3cc[n+]21`, the absorption maximum (in ClC(Cl)Cl) was 398.5 nm.
Regarding `CC(C)[Si]1(C(C)C)c2cc(C#N)ccc2-c2ccc(N(C)C)cc21`, the absorption maximum is, setting by setting: (in C1CCCCC1) 357 nm; (in CC#N) 360 nm; (in CCO) 360 nm; (in CCOCC) 358 nm; (in CS(C)=O) 375 nm; (in ClCCl) 368 nm. The compound further yielded an absorption maximum (in c1ccccc1) of 360 nm.
